US8940731B2, “Substituted pyridyl amide compounds as modulators of the histamine H3 receptor” (Janssen Pharmaceutica NV, priority 2006, dated 2015)
Structures can show the parent of a compound that is named as a salt. Where two headings read alike, the source gives them in different places.

Columns and labels:
[1] = molecular target: Rat H3 (Rattus norvegicus, UniProt Q9QYN8); assay: H3 Receptor Binding (Rat); settings: rat brain membranes without cerebellum, 0.8 nM N-[3H]-α-methylhistamine, 60 min at 25° C.; average of the results obtained
Method: H3 Receptor Binding (Rat)
A rat brain without cerebellum (Zivic Laboratories Inc., Pittsburgh, Pa.) was homogenized in 50 mM Tris-HCl/5 mM EDTA and centrifuged at 1,000 rpm for 5 min. The supernatant was removed and recentrifuged at 15,000 rpm for 30 min. Pellets were rehomogenized in 50 mM Tris/5 mM EDTA (pH 7.4). Membranes were incubated with 0.8 nM N-[^3H]-α-methylhistamine plus/minus test compounds for 60 min at 25° C. and harvested by rapid filtration over GF/C glass fiber filters (pretreated with 0.3% polyethylenimine) followed by four washes with buffer. Nonspecific binding was defined in the presence of 100 μM histamine.

[2] = molecular target: T1, cloned human H3 receptors (Homo sapiens, UniProt Q9Y5N1); assay: H3 Receptor Binding (Human)
T1 construct: expressed in transfected cells
Method: H3 Receptor Binding (Human)
Binding of compounds to the cloned human H3 receptors, stably expressed in SK-N-MC cells, was performed as described by Barbier, A. J. et al. (Br. J. Pharmacol. 2004, 143(5), 649-661).

[3] = cloned human H3 receptors stably expressed in SK-N-MC cells, average of the results obtained, read-out: Human H3 Ki

Chain of Rat H3 (Q9QYN8 1-397 isoform Q9QYN8-3): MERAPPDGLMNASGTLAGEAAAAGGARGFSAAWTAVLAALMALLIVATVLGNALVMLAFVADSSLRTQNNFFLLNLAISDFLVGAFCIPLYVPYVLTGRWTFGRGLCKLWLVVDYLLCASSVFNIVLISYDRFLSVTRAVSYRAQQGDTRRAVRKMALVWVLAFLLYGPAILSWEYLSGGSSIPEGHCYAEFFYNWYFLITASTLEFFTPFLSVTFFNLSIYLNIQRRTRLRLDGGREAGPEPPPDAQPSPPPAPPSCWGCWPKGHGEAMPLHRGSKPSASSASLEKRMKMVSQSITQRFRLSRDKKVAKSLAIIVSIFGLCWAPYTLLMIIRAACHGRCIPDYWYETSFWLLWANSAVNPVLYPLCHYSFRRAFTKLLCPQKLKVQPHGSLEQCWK
T1 sequence (Q9Y5N1 whole entry): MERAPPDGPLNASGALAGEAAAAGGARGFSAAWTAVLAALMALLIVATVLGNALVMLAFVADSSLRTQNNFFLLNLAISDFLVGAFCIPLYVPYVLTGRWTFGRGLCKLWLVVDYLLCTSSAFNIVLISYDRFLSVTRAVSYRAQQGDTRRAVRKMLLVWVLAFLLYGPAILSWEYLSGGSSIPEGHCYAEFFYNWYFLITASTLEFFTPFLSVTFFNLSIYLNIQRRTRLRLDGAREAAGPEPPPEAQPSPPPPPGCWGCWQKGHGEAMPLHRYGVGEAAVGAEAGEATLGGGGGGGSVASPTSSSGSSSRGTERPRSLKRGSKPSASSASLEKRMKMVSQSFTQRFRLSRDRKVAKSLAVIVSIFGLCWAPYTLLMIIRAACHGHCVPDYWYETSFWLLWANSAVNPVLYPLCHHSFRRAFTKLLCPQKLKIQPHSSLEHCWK

| Ki [1] | Ki [2, 3] | Ki ([2]; bromo-pyridine intermediates (Step A), value given in the synthesis, read-out: Assay 1 (Human H3): Ki) | Structure (SMILES) |
| --- | --- | --- | --- |
| 32 nM | 11 nM |  | CSc1ccc(Oc2ccc(C(=O)N3CCCN(C4CCC4)CC3)cn2)cc1 [Example 105, (4-Cyclobutyl-[1,4]diazepan-1-yl)-[6-(4-methylsulfanyl-phenoxy)-pyridin-3-yl]-methanone] |
| 54 nM | 6 nM |  | O=C(c1ccc(Oc2ccccc2)nc1)N1CCCN(C2CC2)CC1 [Example 13, (4-Cyclopropyl-[1,4]diazepan-1-yl)-(6-phenoxy-pyridin-3-yl)-methanone] |
| 16 nM | 2 nM |  | O=C(c1ccc(Oc2ccccc2)nc1)N1CCCN(C2CCC2)CC1 [Example 21, (4-Cyclobutyl-[1,4]diazepan-1-yl)-(6-phenoxy-pyridin-3-yl)-methanone] |
|  |  | 33 nM | O=C(c1cccc(Br)n1)N1CCCN(C2CCC2)CC1 [(6-Bromo-pyridin-2-yl)-(4-cyclobutyl-[1,4]diazepan-1-yl)-methanone] |
| 132 nM | 3 nM |  | Cc1cc(Oc2ccc(C(=O)N3CCCN(C4CC4)CC3)nc2C#N)ccc1Cl [Example 57, 3-(4-Chloro-3-methyl-phenoxy)-6-(4-cyclopropyl-[1,4]diazepane-1-carbonyl)-pyridine-2-carbonitrile] |
|  | 1 nM |  | O=C(c1ccc(Oc2cc(Cl)cc(Cl)c2)nc1)N1CCCN(C2CCC2)CC1 [Example 33, (4-Cyclobutyl-[1,4]diazepan-1-yl)-[6-(3,5-dichloro-phenoxy)-pyridin-3-yl]-methanone] |
|  | 180 nM |  | O=C(c1ccc(Oc2ccc(F)cc2)nc1)N1CCN(C2CC2)CC1 [Example 22, (4-Cyclopropyl-piperazin-1-yl)-[6-(4-fluoro-phenoxy)-pyridin-3-yl]-methanone] |
|  | 68 nM |  | CC(C)N1CCN(C(=O)c2ccc(Oc3ccc(Cl)cc3)nc2)CC1 [Example 8, [6-(4-Chloro-phenoxy)-pyridin-3-yl]-(4-isopropyl-piperazin-1-yl)-methanone] |
|  | 250 nM |  | CN1CCCN(C(=O)c2ccc(Oc3ccc(F)cc3)nc2)CC1 [Example 92, [6-(4-Fluoro-phenoxy)-pyridin-3-yl]-(4-methyl-[1,4]diazepan-1-yl)-methanone] |
|  | 6 nM |  | CC(C)N1CCCN(C(=O)c2ccc(Oc3cccc(F)c3)nc2)CC1 [Example 38, [6-(3-Fluoro-phenoxy)-pyridin-3-yl]-(4-isopropyl-[1,4]diazepan-1-yl)-methanone] |
|  | 10 nM |  | O=C(c1ccc(Oc2ccc(F)cc2)nc1)N1CCN(C2CCC2)CC1 [Example 79, (4-Cyclobutyl-piperazin-1-yl)-[6-(4-fluoro-phenoxy)-pyridin-3-yl]-methanone] |
|  | 58 nM |  | CC(C)CN1CCN(C(=O)c2ccc(Oc3ccc(F)cc3)nc2)CC1 [Example 93, [6-(4-Fluoro-phenoxy)-pyridin-3-yl]-(4-isobutyl-piperazin-1-yl)-methanone] |
|  | 104 nM |  | CC(C)N1CCN(C(=O)c2ccc(Oc3ccc(Cl)c(Cl)c3)c(C(N)=O)n2)CC1 [Example 54, 3-(3,4-Dichloro-phenoxy)-6-(4-isopropyl-piperazine-1-carbonyl)-pyridine-2-carboxylic acid amide trifluoroacetic acid salt] |

More lines, now with the values behind:

| Structure (SMILES) | Ki [1] | Ki [2, 3] | Ki ([2]; bromo-pyridine intermediates (Step A), value given in the synthesis, read-out: Assay 1 (Human H3): Ki) |
| --- | --- | --- | --- |
| O=C(c1ccc(Oc2ccc(F)cc2)nc1)N1CCCN(C2CC2)CC1 [Example 18, (4-Cyclopropyl-[1,4]diazepan-1-yl)-[6-(4-fluoro-phenoxy)-pyridin-3-yl]-methanone] | 68 nM | 2 nM |  |
| CSc1ccc(Oc2ccc(C(=O)N3CCCN(C4CC4)CC3)cn2)cc1C [Example 41, (4-Cyclopropyl-[1,4]diazepan-1-yl)-[6-(3-methyl-4-methylsulfanyl-phenoxy)-pyridin-3-yl]-methanone] | 75 nM | 4 nM |  |
| O=C(c1ccc(Oc2ccc(Cl)c(Cl)c2)cn1)N1CCCN(C2CC2)CC1 [Example 52, (4-Cyclopropyl-[1,4]diazepan-1-yl)-[5-(3,4-dichloro-phenoxy)-pyridin-2-yl]-methanone trifluoroacetic acid salt] | 110 nM | 4 nM |  |
| O=C(c1ccc(Oc2ccc(F)cc2F)nc1)N1CCCN(C2CC2)CC1 [Example 32, (4-Cyclopropyl-[1,4]diazepan-1-yl)-[6-(2,4-difluoro-phenoxy)-pyridin-3-yl]-methanone] | 92 nM | 4 nM |  |
| O=C(c1ccc(Oc2cccc(F)c2)nc1)N1CCCN(C2CC2)CC1 [Example 37, (4-Cyclopropyl-[1,4]diazepan-1-yl)-[6-(3-fluoro-phenoxy)-pyridin-3-yl]-methanone] | 130 nM | 5 nM |  |
| O=C(c1ccc(Sc2ccc(Cl)cc2)nc1)N1CCCN(C2CCC2)CC1 [Example 85, [6-(4-Chloro-phenylsulfanyl)-pyridin-3-yl]-(4-cyclobutyl-[1,4]diazepan-1-yl)-methanone] |  | 1 nM |  |
| O=C(c1cccc(Oc2ccc(Cl)c(Cl)c2)n1)N1CCCN(C2CC2)CC1 [Example 44, (4-Cyclopropyl-[1,4]diazepan-1-yl)-[6-(3,4-dichloro-phenoxy)-pyridin-2-yl]-methanone] |  | 327 nM |  |
| O=C(c1ccc(Oc2cccc(F)c2)cn1)N1CCCN(C2CCC2)CC1 [Example 71, (4-Cyclobutyl-[1,4]diazepan-1-yl)-[5-(3-fluoro-phenoxy)-pyridin-2-yl]-methanone trifluoroacetic acid salt] |  | 2 nM |  |
| CC(C)N1CCN(C(=O)c2ccc(Oc3ccccc3)nc2)CC1 [Example 5, (4-Isopropyl-piperazin-1-yl)-(6-phenoxy-pyridin-3-yl)-methanone] |  | 71 nM |  |
| N#Cc1nc(C(=O)N2CCCN(C3CCC3)CC2)ccc1Oc1ccc(F)cc1 [Example 82, 6-(4-Cyclobutyl-[1,4]diazepane-1-carbonyl)-3-(4-fluoro-phenoxy)-pyridine-2-carbonitrile] |  | 1 nM |  |
| CC(C)N1CCN(C(=O)c2ccc(Oc3ccccc3Cl)nc2)CC1 [Example 75, [6-(2-Chloro-phenoxy)-pyridin-3-yl]-(4-isopropyl-piperazin-1-yl)-methanone] |  | 9 nM |  |
| CN1CCCN(C(=O)c2ccc(Oc3ccc(F)cc3)nc2)CC1 [Example 80, [6-(4-Fluoro-phenoxy)-pyridin-3-yl]-(4-methyl-[1,4]diazepan-1-yl)-methanone] |  | 253 nM |  |
| O=C(c1ccc(Sc2ccccc2)cn1)N1CCCN(C2CCC2)CC1 [Example 91, (4-Cyclobutyl-[1,4]diazepan-1-yl)-(5-phenylsulfanyl-pyridin-2-yl)-methanone] |  | 3 nM |  |
| Cc1cccc(Oc2ccc(C(=O)N3CCCN(C4CCC4)CC3)cn2)c1 [Example 103, (4-Cyclobutyl-[1,4]diazepan-1-yl)-(6-m-tolyloxy-pyridin-3-yl)-methanone] |  | 1 nM |  |
| O=C(c1ccc(Oc2cc(F)ccc2F)nc1)N1CCCN(C2CC2)CC1 [Example 34, (4-Cyclopropyl-[1,4]diazepan-1-yl)-[6-(2,5-difluoro-phenoxy)-pyridin-3-yl]-methanone] |  | 5 nM |  |
| CC(C)N1CCCN(C(=O)c2ccc(Oc3ccc(Cl)c(Cl)c3)nc2)CC1 [Example 15, [6-(3,4-Dichloro-phenoxy)-pyridin-3-yl]-(4-isopropyl-[1,4]diazepan-1-yl)-methanone] |  | 8 nM |  |
| CSc1ccc(Oc2ccc(C(=O)N3CCN(C4CCCC4)CC3)cn2)cc1C [Example 100, (4-Cyclopentyl-piperazin-1-yl)-[6-(3-methyl-4-methylsulfanyl-phenoxy)-pyridin-3-yl]-methanone] |  | 98 nM |  |
